Reference: the supplement of paper PMC6045584
± gives the standard deviation of the averaged measurements.

Tests used:
[1] = compound: Nc1ncn([C@H]2C[C@H](O)[C@@H](CO)O2)c(=O)n1 [DECITABINE]; assay: surviving fraction relative to DMSO-only wells; higher = less growth inhibition; conditions: exposure time: 5 days
In short: (§1)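 Inhibitors at 0.5, 1, 5, 10, 50, 100, 500 and 1000 nM were applied continuously for five days to tumour cell lines seeded in log phase at 250–500 cells per well in 384-well plates 24 hours earlier. Viability was measured by CellTiter-Glo luminescence and expressed as surviving fraction relative to the median of DMSO-only wells. Luminescence was taken after 10 minutes at room temperature.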

[2] = compound: CS(=O)(=O)CCNCc1ccc(-c2ccc3ncnc(Nc4ccc(OCc5cccc(F)c5)c(Cl)c4)c3c2)o1 [LAPATINIB]; assay: as above; conditions: exposure time: 5 days
In short: as §1

Test System	surviving fraction ([1]; 0.5 nM)	surviving fraction ([1]; 1 nM)	surviving fraction ([1]; 5 nM)	surviving fraction ([1]; 10 nM)	surviving fraction ([1]; 50 nM)	surviving fraction ([1]; 100 nM)	surviving fraction ([1]; 500 nM)	surviving fraction ([1]; 1000 nM)	surviving fraction ([2]; 0.5 nM)	surviving fraction ([2]; 1 nM)	surviving fraction ([2]; 5 nM)	surviving fraction ([2]; 10 nM)	surviving fraction ([2]; 50 nM)	surviving fraction ([2]; 100 nM)	surviving fraction ([2]; 500 nM)	surviving fraction ([2]; 1000 nM)
MDAMB436 BREAST	1.11 ± 0.084	1.06 ± 0.079	1 ± 0.12	0.949 ± 0.09	0.927 ± 0.11	0.823 ± 0.064	0.796 ± 0.048	0.685 ± 0.032	0.893 ± 0.14	0.996 ± 0.13	0.834 ± 0.091	0.896 ± 0.03	1.02 ± 0.072	1.03 ± 0.12	1.05 ± 0.23	1.04 ± 0.083
MDAMB453 BREAST	1.04 ± 0.053	1.04 ± 0.032	1.05 ± 0.093	1.07 ± 0.062	1.05 ± 0.061	1.02 ± 0.059	0.88 ± 0.015	0.757 ± 0.053	1.06 ± 0.024	1.04 ± 0.061	1.09 ± 0.099	1.11 ± 0.12	0.993 ± 0.026	1.04 ± 0.018	0.868 ± 0.043	0.752 ± 0.024
MDAMB468 BREAST	1.09 ± 0.083	1.08 ± 0.062	1.08 ± 0.098	1.03 ± 0.068	0.836 ± 0.04	0.658 ± 0.046	0.391 ± 0.02	0.341 ± 0.043	1.07 ± 0.019	1.01 ± 0.042	1.13 ± 0.054	1.09 ± 0.08	1.086 ± 0.01	1.1 ± 0.051	0.948 ± 0.043	0.785 ± 0.058
MFM223 BREAST	1.5 ± 0.59	1.51 ± 0.5	1.45 ± 0.48	1.47 ± 0.53	1.05 ± 0.061	1.05 ± 0.1	0.993 ± 0.095	0.799 ± 0.02	1.18 ± 0.13	1.18 ± 0.14	1.15 ± 0.027	1.13 ± 0.081	1.058 ± 0.01	1.2 ± 0.034	1.02 ± 0.084	–
MG63 BONE	0.968 ± 0.02	0.9493 ± 0.0021	0.704 ± 0.009	0.641 ± 0.0093	0.432 ± 0.017	0.356 ± 0.008	0.302 ± 0.016	0.291 ± 0.011	0.98 ± 0.029	1.04 ± 0.027	1.06 ± 0.035	1.07 ± 0.035	1.04 ± 0.039	1.08 ± 0.023	1.09 ± 0.017	1.11 ± 0.038
MHM BONE	1 ± 0.029	1 ± 0.07	1.02 ± 0.04	1.02 ± 0.062	1.05 ± 0.044	1.02 ± 0.023	1.08 ± 0.042	1.04 ± 0.038	0.9907 ± 0.0093	1 ± 0.015	1.05 ± 0.014	1.07 ± 0.037	1.02 ± 0.027	1.02 ± 0.014	0.992 ± 0.033	1.01 ± 0.024
NCIH441 LUNG	1.11 ± 0.025	1.11 ± 0.058	1.03 ± 0.074	0.935 ± 0.039	0.71 ± 0.057	0.591 ± 0.12	0.494 ± 0.047	0.405 ± 0.056	1.06 ± 0.071	1.07 ± 0.12	1.08 ± 0.059	1.17 ± 0.067	1.03 ± 0.053	1.09 ± 0.043	1 ± 0.061	1.18 ± 0.054
NOS1 BONE	1.07 ± 0.099	0.872 ± 0.046	1.28 ± 0.055	0.989 ± 0.08	1.09 ± 0.043	0.992 ± 0.074	0.977 ± 0.22	0.816 ± 0.031	1.16 ± 0.16	1.05 ± 0.12	1.11 ± 0.069	1.12 ± 0.033	1.13 ± 0.068	1.08 ± 0.13	1.03 ± 0.093	0.898 ± 0.029
NY BONE	0.9793 ± 0.0075	0.955 ± 0.016	1 ± 0.028	0.939 ± 0.018	0.921 ± 0.021	0.843 ± 0.054	0.649 ± 0.036	0.479 ± 0.042	1.02 ± 0.025	1.03 ± 0.042	1.05 ± 0.025	1.1 ± 0.05	1 ± 0.028	1.1 ± 0.046	0.9837 ± 0.0064	1.04 ± 0.027
OS25HAL BONE	1.01 ± 0.024	0.9963 ± 0.0074	1.08 ± 0.033	1.07 ± 0.011	1.19 ± 0.034	1.22 ± 0.034	1.047 ± 0.01	0.921 ± 0.055	1.01 ± 0.018	1.06 ± 0.018	1.06 ± 0.066	1 ± 0.024	1.05 ± 0.029	1.04 ± 0.0055	1.09 ± 0.044	1.1 ± 0.053
OSHN BONE	1.08 ± 0.015	1.06 ± 0.028	1.11 ± 0.024	1.07 ± 0.032	1.17 ± 0.03	1.17 ± 0.017	1.22 ± 0.022	1.112 ± 0.0035	1.03 ± 0.026	1.098 ± 0.0061	1.09 ± 0.025	1.1 ± 0.011	1.05 ± 0.02	1.08 ± 0.015	1.067 ± 0.0071	1.1 ± 0.015
PCI30 HEADNECK	1.04 ± 0.03	1.03 ± 0.052	0.987 ± 0.053	1.06 ± 0.034	0.963 ± 0.065	0.96 ± 0.079	0.843 ± 0.056	1.08 ± 0.075	1.06 ± 0.033	1.05 ± 0.06	1.05 ± 0.052	1.06 ± 0.084	1.14 ± 0.063	1.18 ± 0.062	1.01 ± 0.069	0.989 ± 0.071
RDES SOFT TISSUE	1.24 ± 0.016	1.14 ± 0.033	1.18 ± 0.15	0.972 ± 0.05	1.13 ± 0.13	1.29 ± 0.16	1.11 ± 0.16	1.41 ± 0.28	–	1.21 ± 0.12	1.14 ± 0.11	1.13 ± 0.13	1.09 ± 0.053	1.19 ± 0.11	1.41 ± 0.18	1.55 ± 0.19
S68 BREAST	0.828 ± 0.28	0.903 ± 0.17	1.15 ± 0.28	1.13 ± 0.24	0.697 ± 0.21	0.926 ± 0.2	0.541 ± 0.13	0.445 ± 0.013	1.12 ± 0.24	1.01 ± 0.2	1.17 ± 0.11	1.26 ± 0.22	1.07 ± 0.08	1.1 ± 0.33	0.71 ± 0.058	0.769 ± 0.032
SAOS2 BONE	1.09 ± 0.027	1.11 ± 0.037	1.1 ± 0.027	1.02 ± 0.042	1.01 ± 0.051	0.88 ± 0.07	0.742 ± 0.057	0.581 ± 0.12	1.14 ± 0.027	1.19 ± 0.066	1.24 ± 0.038	1.24 ± 0.049	1.18 ± 0.065	1.24 ± 0.099	1.21 ± 0.11	1.15 ± 0.22
SCC003 HEADNECK	1.03 ± 0.038	1.03 ± 0.032	1.06 ± 0.067	1.03 ± 0.055	0.922 ± 0.047	0.788 ± 0.032	0.718 ± 0.032	0.635 ± 0.065	1.08 ± 0.05	1.13 ± 0.054	1.06 ± 0.067	1.11 ± 0.079	0.963 ± 0.011	0.964 ± 0.054	0.757 ± 0.015	0.64 ± 0.069
SCC36 HEADNECK	1.01 ± 0.05	1.01 ± 0.054	1.05 ± 0.15	1.05 ± 0.09	1.04 ± 0.089	0.934 ± 0.067	0.709 ± 0.054	0.648 ± 0.074	1.03 ± 0.067	1.1 ± 0.089	1.08 ± 0.062	1.11 ± 0.051	0.918 ± 0.049	0.883 ± 0.067	0.543 ± 0.051	0.394 ± 0.043
SCC47 HEADNECK	1.07 ± 0.084	1.08 ± 0.13	1.08 ± 0.012	1.09 ± 0.067	1.03 ± 0.058	1.03 ± 0.03	0.973 ± 0.028	0.863 ± 0.1	1.09 ± 0.1	1.1 ± 0.016	1.09 ± 0.011	1.18 ± 0.033	1.05 ± 0.044	1.05 ± 0.072	0.82 ± 0.041	0.705 ± 0.053
